According to article PMC12006963, “Application of Deuterium in an M1 Positive Allosteric Modulator Back-Up Program: The Discovery of VU6045422” (ACS Chemical Neuroscience, 2025):

Columns and labels:
Format in all cases: in vitro ADME
[1] = biological target: T1, P-gp (MDR1) (Homo sapiens, UniProt P08183); experiment: MDCK-MDR1 monolayer permeability and efflux; parameters: dose or concentration left out as unconfirmed; conditions: dog; for Papp at 2 h: MDCK-MDR1; for efflux ratio at 2 h: MDCK-MDR1 efflux ratio, read-out: P-gp ER
T1 construct: host or cells: MDR1-MDCK cell monolayers
T1 sequence (P08183 whole entry): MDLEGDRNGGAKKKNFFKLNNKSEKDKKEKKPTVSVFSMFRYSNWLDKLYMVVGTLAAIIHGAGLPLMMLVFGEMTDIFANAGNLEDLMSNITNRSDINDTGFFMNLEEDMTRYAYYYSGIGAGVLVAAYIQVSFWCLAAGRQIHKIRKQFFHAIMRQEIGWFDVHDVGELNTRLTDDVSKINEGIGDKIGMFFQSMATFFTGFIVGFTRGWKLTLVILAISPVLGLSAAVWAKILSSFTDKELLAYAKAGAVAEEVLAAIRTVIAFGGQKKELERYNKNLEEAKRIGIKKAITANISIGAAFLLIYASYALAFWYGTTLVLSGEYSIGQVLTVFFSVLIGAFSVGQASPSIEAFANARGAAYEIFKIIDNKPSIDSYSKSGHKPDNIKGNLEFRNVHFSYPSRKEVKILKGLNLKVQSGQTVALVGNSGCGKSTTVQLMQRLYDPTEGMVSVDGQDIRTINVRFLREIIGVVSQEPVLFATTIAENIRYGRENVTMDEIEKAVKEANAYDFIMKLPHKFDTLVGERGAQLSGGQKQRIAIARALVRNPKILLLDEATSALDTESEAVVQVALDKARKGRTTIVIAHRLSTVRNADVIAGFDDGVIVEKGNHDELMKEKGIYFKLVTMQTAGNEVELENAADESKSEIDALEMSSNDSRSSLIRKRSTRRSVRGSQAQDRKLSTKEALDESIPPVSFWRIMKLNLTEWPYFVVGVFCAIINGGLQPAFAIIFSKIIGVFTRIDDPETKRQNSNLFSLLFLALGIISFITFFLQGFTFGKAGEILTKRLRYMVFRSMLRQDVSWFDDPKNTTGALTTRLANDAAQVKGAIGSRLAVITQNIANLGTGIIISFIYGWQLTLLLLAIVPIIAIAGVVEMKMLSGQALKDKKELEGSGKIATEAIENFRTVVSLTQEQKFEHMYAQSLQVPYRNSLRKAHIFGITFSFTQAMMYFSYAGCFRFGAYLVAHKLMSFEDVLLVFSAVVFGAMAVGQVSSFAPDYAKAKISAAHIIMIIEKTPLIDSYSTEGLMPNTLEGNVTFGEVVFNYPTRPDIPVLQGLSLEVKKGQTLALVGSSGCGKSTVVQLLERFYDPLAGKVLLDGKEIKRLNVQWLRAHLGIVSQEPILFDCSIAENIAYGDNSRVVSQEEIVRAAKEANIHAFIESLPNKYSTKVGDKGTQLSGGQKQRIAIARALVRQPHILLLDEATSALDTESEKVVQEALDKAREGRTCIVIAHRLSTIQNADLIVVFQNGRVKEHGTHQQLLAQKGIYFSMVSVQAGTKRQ
Procedure: page 9: Brain plasma concentration ratio (Kp) was calculated by dividing brain concentration by plasma concentration for each animal. Unbound brain to unbound plasma concentration ratio (Kp,uu) is calculated using the following formula: Kp,uu = (Brain ng/g x brain fu)/(plasma ng/ml x plasma fu). Pharmacokinetic profiles in rats following oral single escalating doses Single escalating oral dosing in Sprague-Dawley rats was performed at Frontage Laboratories according to their non-GLP Standard Operating Procedure and IACUC protocols. In short, compounds were formulated in 10% Tween 80 in water and dosed at 10 mg/kg. At different times, arterial blood was collected from a femoral artery catheter, and compound concentration was determined in plasma by LC-MS/MS following their non-GLP protocol. PK parameters were determined using Phoenix WinNonlin software (version 6.3). In-vitro determination of blood-brain barrier penetration potential Blood-brain barrier penetration was determined using MDR1-MDCK cell monolayers by Absorption Systems, following their protocol. In short, compounds were incubated […] final concentration on one side of the cell monolayer for 2 hours. Compounds concentration on either side of the monolayer was determined by LC-MS/MS and apparent permeability and efflux ratio were determined as described in Wang, Q. et al.1 Behavioral Manifestations of Seizure Activity To evaluate induction of behavioral manifestation of seizure activity, C57Bl/6 mice received administration of vehicle or 100 mg/kg M1 PAM 5. Compound was formulated in 30% Captisol (pH 7.0) at a concentration of 10 mg/mL and injected i.p. at 10 ml/kg (n = 4). Animals were monitored continuously and scored for behavioral manifestations of seizure activity at 5, 15, 30 min, and 1 h. Behavioral manifestations of seizures were scored using a modified Racine scoring system. Briefly, a score of 0 represents no behavior alterations; score 1, immobility, mouth and facial movements, or facial clonus; score 2, head nodding, tail extension; score 3, forelimb clonus, repetitive movements; score 4, rearing and tonic clonic seizure; and score 5, continuous rearing and falling, severe generalized tonic clonic seizure. Novel Object Recognition Task S9

[2] = Predicted hepatic clearance, hepatic microsomes (human)
Procedure: After a 5 min preincubation, the reaction was initiated by the addition of NADPH (1 mM). At selected time intervals (0, 3, 7, 15, 25, and 45 min), aliquots were taken and subsequently placed into a 96-well plate containing cold acetonitrile with internal standard (50 ng/mL carbamazepine). Plates were then centrifuged at 3000 rcf (4 °C) for 10 min, and the supernatant was transferred to a separate 96-well plate and diluted 1:1 with water for LC/MS/MS analysis. The in vitro half-life ( 1/2, min, Eq. 1), intrinsic clearance (CLint, mL/min/kg, Eq. 2), and subsequent predicted hepatic clearance (CLhep, mL/min/kg, Eq. 3) was determined employing the […]
where k represents the slope from linear regression analysis of the natural log percent remaining of a test compound as a function of incubation time […]
(2) CLint = in vitroT1/2 x mg microsomes x gram liver x kg body wt ascale-up factors: of 20 (human) or 45 (rat) […]
where Qh (hepatic blood flow, mL/min/kg) is 21 (human) or 70 (rat).
LC/MS/MS Bioanalysis of Samples from Plasma Protein Binding and Intrinsic Clearance […]
Samples were analyzed on a Thermo Electron TSQ Quantum Ultra triple quad mass spectrometer (San Jose, CA) via electrospray ionization (ESI) with two Themo Electron Accella pumps (San Jose, CA), and a Leap Technologies CTC PAL autosampler (Carrboro, NC). Analytes were separated by gradient elution on a dual column system with two Thermo Hypersil Gold (2.1 x 30 mm, 1.9 µm) columns (San Jose, CA) thermostated at 40 °C. HPLC mobile phase A was 0.1% formic acid in water and mobile phase B was 0.1% formic acid in acetonitrile. The gradient started […]
for 0.2 min; returned to 10% B in 0.1 min. The total run time was 1.3 min and the HPLC flow rate was 0.8 mL/min. While pump 1 ran the gradient method, pump 2 equilibrated the alternate column isocratically at 10% B. Compound optimization, data collection, and processing was performed using Thermo Electron's QuickQuan software (v2.3) and Xcalibur (v2.0.7 SP1).
In vivo DMPK experimental:
Determination of brain to plasma ratio: […]

[3] = biological target: T2, CYP 1A2 (Homo sapiens, UniProt P05177); experiment: CYP inhibition 1A2
T2 sequence (P05177 1-516): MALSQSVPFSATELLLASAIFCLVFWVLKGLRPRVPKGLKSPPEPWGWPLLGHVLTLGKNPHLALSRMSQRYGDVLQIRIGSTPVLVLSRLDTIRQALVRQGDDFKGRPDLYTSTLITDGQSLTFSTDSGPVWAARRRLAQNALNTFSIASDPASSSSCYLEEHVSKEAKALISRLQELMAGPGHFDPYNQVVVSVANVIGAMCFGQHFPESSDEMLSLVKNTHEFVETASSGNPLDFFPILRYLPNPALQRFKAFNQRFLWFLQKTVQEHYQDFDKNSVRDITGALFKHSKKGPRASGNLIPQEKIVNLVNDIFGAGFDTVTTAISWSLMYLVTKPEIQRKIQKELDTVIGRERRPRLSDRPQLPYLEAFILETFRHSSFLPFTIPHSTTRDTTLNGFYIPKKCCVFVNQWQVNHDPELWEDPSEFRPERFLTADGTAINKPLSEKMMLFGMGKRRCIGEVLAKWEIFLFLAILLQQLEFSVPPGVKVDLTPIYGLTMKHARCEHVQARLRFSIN
From the text: (§1) Table 1 Pharmacology and In Vitro DMPK Profiles of M1 PAMs 1, 3, and 5 | column: 1; 3; 5

[4] = biological target: CYP 3A4 (Homo sapiens, UniProt P08684); experiment: CYP inhibition 3A4
Sequence of CYP 3A4 (P08684 whole entry): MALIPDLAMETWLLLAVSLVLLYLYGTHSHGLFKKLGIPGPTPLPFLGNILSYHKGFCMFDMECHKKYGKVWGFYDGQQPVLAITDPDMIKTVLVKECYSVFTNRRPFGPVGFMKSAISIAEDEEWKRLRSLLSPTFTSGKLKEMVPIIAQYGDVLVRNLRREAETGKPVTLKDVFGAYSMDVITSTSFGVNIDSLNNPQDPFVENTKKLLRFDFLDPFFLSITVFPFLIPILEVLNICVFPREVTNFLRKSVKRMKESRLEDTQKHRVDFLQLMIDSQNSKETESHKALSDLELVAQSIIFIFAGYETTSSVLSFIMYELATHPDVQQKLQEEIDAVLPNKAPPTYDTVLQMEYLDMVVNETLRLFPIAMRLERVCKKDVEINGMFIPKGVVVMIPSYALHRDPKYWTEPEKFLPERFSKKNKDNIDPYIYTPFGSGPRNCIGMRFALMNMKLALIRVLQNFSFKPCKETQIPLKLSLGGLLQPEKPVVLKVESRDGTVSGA
From the text: as §1

Structure (SMILES)	Papp at 2 h [1]	efflux ratio at 2 h [1]	Predicted CLhep [2]	IC50 [3]	IC50 [4]
[2H]C1([2H])c2ncccc2C(=O)N1Cc1c(F)cc(-c2cccc3nn(C)cc23)cc1F [compound 3]	41.2 ×10⁻⁶ cm/s	1.55	10.6 mL/min/kg	> 30 µM	> 30 µM
[2H]C1([2H])c2ncccc2C(=O)N1Cc1c(F)cc(-c2cccc3nn(C([2H])([2H])[2H])cc23)cc1F [compound 5]	34.2 ×10⁻⁶ cm/s	1.3	8.0 mL/min/kg	> 30 µM	28.6 µM
Cn1cc2c(-c3cc(F)c(CN4Cc5ncccc5C4=O)c(F)c3)cccc2n1 [compound 1]	31.1 ×10⁻⁶ cm/s	1.8	1.3 mL/min/kg	14.2 µM	> 30 µM
